Literature values in patent EP2934488B1, “A PHARMACEUTICAL COMPOSITION CONTAINING CANDESARTAN CILEXETIL AND AMLODIPINE” (Adamed Pharma S.A., priority 2012, dated 2014).

Key:
[1] = not given; remark: listed apart in the source

In the case of `CCOC(=O)C1=C(COCCN)NC(C)=C(C(=O)OC)C1c1ccccc1Cl` (racemic) [Amlodipine benzenesulfonate, 3-ethyl 5-methyl (4RS)-2-[(2-amino-ethoxy)-methyl]-6-methyl-1,4-dihydropyridine-3,5-dicarboxylate], the solubility in water is given as “slightly soluble in water” and the absolute bioavailability ([1]; in vivo) is given as 64-90%.
For `CCOc1nc2cccc(C(=O)O)c2n1Cc1ccc(-c2ccccc2-c2nnn[nH]2)cc1` [candesartan], the candesartan physiologically available ([1]; candesartan included in commercial formulations, estimated) is given as 15-40%.
